Results published in ChEMBL document CHEMBL3745682, “Pivotal role of glycogen synthase kinase-3: A therapeutic target for Alzheimer's disease” (Eur J Med Chem, 2016).

Key:
[1] = target: T1, Glycogen synthase kinase-3 (Homo sapiens, UniProt P49840+P49841); type: protein assay
Description: Inhibition of glycogen synthase kinase-3 (unknown origin)

[2] = target: T2, Glycogen synthase kinase-3 beta (Homo sapiens, UniProt P49841)
Description: Competitive inhibition of glycogen synthase kinase-3 beta (unknown origin) using GS-1 as substrate after 30 mins by scintillation counting analysis in presence of [gamma-32P]-ATP

[3] = target: T2, Glycogen synthase kinase-3 beta; experiment: Inhibition of glycogen synthase kinase-3 beta (unknown origin) using GS-1 as substrate after 20 mins by scintillation counting analysis in presence of [gamma-32P]-ATP
[4] = target: T1, Glycogen synthase kinase-3; experiment: Competitive inhibition of glycogen synthase kinase-3 (unknown origin) in presence of ATP; type: protein assay

T2 sequence (P49841 whole entry): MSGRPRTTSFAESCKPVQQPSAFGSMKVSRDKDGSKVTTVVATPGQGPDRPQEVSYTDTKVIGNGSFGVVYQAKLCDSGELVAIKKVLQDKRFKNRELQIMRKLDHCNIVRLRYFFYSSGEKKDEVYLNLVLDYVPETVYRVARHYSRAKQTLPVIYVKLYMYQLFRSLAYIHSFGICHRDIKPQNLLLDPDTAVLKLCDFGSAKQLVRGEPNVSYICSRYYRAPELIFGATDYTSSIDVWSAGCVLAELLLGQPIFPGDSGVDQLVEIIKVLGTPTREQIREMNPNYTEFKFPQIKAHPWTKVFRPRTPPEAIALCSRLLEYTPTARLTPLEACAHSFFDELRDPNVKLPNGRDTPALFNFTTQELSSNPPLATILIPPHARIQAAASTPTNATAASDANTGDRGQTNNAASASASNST

In the case of `CC(=O)C1=C(c2cn(C)c3ccccc23)C(=O)NC1=O`, the IC50 [1] is reported as 4470 nM.
Molecule `O=C1Nc2ccccc2/C1=C1/Nc2cc(Br)ccc2C1=O` has an IC50 [2] of 4 nM.
Molecule `O=C(CBr)c1ccc(C2C(=O)c3ccccc3C2=O)cc1` has an IC50 [3] of 100000 nM.
Work on `Br.CCOC(=O)C/N=C1\NC(c2ccccc2)N(c2ccccc2)S1` (centres undefined) yielded an IC50 [1] of 7050 nM.
`Clc1cccc(C2=NC(c3ccccc3)=NN(c3ccccc3)c3ccccc32)c1` was tested, and the IC50 [1] was 3380 nM.
In the case of `O=S=C(CCl)c1ccc(Cl)cc1`, the IC50 [3] is reported as > 100000 nM.
`Br.Br.c1ccc(C/N=C2\NC(c3ccccc3)N(c3ccccc3)S2)cc1` (centres undefined) was tested, and the IC50 [1] was 1280 nM.
With `COc1ccc(CNC(=O)Nc2nc(C)c(C(C)=O)s2)cc1` the IC50 [4] was 400 nM.
`O=C1Nc2ccccc2/C1=C1/Nc2ccccc2C1=O` [INDIRUBIN] showed an IC50 [2] of 4 nM.
